Where “and” joins values, the source holds several entries; their conditions need not be identical. Identical values can stand only once. Calls of active or inactive are those of the source.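 Rule for the calls: active = a concentration killing half the fathead minnows in the acute test was determined; inconclusive = some fish died but not half at top dose; inactive = no fish died even at top dose.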

The test system of this data set is Fathead minnow (Pimephales promelas) acute toxicity, lethality. Kind of data set: DSSTox (EPAFHM) EPA Fathead Minnow Acute Toxicity. The source says: The EPA Fathead Minnow Acute Toxicity database was generated by the U.S. EPA Mid-Continental Ecology Division (MED) for the purpose of developing an expert system to predict acute toxicity from chemical structure based on mode of action considerations. […] A second valuable aspect of this database, from a QSAR modeling perspective, is the inclusion of general mode-of-action (MOA) classifications of acute toxicity response for individual chemicals derived from study results. MOA assignments are biologically based classifications, allowing definition of chemical similarity based upon biological activity instead of organic chemistry functional class as most commonly employed in QSAR study. MOA classifications should strengthen the scientific basis for construction of individual QSARs. However, it is cautioned that the broad MOA categorizations should not be construed to represent a single molecular mechanism; for example, CNS seizure agents and respiratory inhibitors are known to act through a variety of receptors. The EPA Fathead Minnow database and results have been used by EPA MED to build components of the ASTER prediction system, which incorporates MOA-based QSARs for the prediction of aquatic toxicity of environmental and industrial chemicals. Briefly, MOA classifications for individual chemicals, derived from experiments and provided in the EPA Fathead Minnow database, were used to derive substructural rules for assigning a new chemical to an MOA category based solely on chemical structure. Once a new chemical is assigned to an MOA category on this basis, the logP-based QSAR for that MOA category is applied.
The DSSTox EPAFHM database (available from the DSSTox Source URL) includes information pertaining to organic chemical class assignments (ChemClass_FHM), acute toxicity in fathead minnow (LC50_mg), dose-response assessments (LC50_Ratio, ExcessToxicityIndex), behavioral assessments (FishBehaviorTest), joint toxicity MOA evaluations of mixtures (MOA_MixtureTest), and additional MOA evaluation of fish acute toxicity syndrome (FishAcuteToxSyndrome) in rainbow trout. All of these indicators, to the extent available, were considered in the determination of MOA and, additionally, were used to determine a level of confidence in the MOA assignment for each chemical (MOA_Confidence). […] Activity Score is mapping of LOG10 (1/LC50_mmol) activity values spanning activity range [MIN, MAX] onto Integer 1-100 Activity range, where 100 is highest potency and 1 is lowest. If Activity Outcome is "active": Activity Score = 100 * INTEGER[(log10(1/ LC50_mmol) - MIN)/([…])].
With `c1ccc(Oc2ccccc2)cc1`, the Potency was 23.5 µM.

On to `CC[N+](CC)(CC)Cc1ccccc1`, for which the Potency was 707 µM.

For the compound `CCCCCN`, the Potency is 2030 µM.

Regarding `CCOc1ccc(C=O)cc1`, the Potency was 187 µM.

For `CCCCN`, the Potency is 3660 µM.

Consider `CCc1c(Br)c(Br)c(Br)c(Br)c1Br`, for which the outcome is “inactive; moa not determined either due to lack of toxicity at saturation or late test res”.

On to `CCC(C)c1cc([N+](=O)[O-])cc([N+](=O)[O-])c1O` (stereo not given), for which the Potency is 2.23 µM.

Regarding `Oc1ccccc1O`, the Potency was 83.7 µM.

Take `Oc1c(Br)cc(Br)cc1Br`: the Potency was 19.8 µM.

With `N#Cc1cccc(C(F)(F)F)c1`, the Potency was 279 µM.

As for `c1ccc(-c2nc(-c3ccccc3)c(-c3ccccc3)[nH]2)cc1`, the outcome was “inactive; moa not determined either due to lack of toxicity at saturation or late test res”.

With `Oc1cc(Cl)c(Cl)cc1O`, the Potency was 4.97 µM.

For the compound `O=[N+]([O-])c1ccccc1O`, the Potency was 1150 µM.

For the compound `C=CCC1(C(C)CCC)C(=O)N=C(O)NC1=O` (stereo not given), the Potency was 90.7 µM.

Take `NCCN1CCNCC1`: the Potency was 17000 µM.

Turning to `CC(=O)/C=C/C1=C(C)CCCC1(C)C`, the Potency was 26.5 µM.

As for `Cc1ccc(C)c(C)c1`, the Potency is 64.2 µM.

For `Nc1ccc([N+](=O)[O-])cc1[N+](=O)[O-]`, the Potency was 80.8 µM.

For `Cc1nnc(N)nc1C`, the Potency is 7670 µM.

In the case of `Clc1cc(Cl)c(SSc2cc(Cl)c(Cl)cc2Cl)cc1Cl`, the outcome is “inactive; moa not determined either due to lack of toxicity at saturation or late test res”.

Consider `O=S(c1ccccc1)c1ccccc1`, for which the Potency is 432 µM.

As for `CCCCOC(=O)c1cccc(C(=O)OCCCC)c1`, the Potency was 3.23 µM.

For the compound `O=Cc1cccnc1`, the Potency was 153 µM.

Turning to `C1=CC2CCC1C2`, the Potency was 106 µM.

For the compound `CC(Cl)(Cl)Cl`, the Potency is 355 µM.

For `CC(=O)Nc1cccc(O)c1`, the Potency is 7480 µM.

In the case of `O=c1cccc(Cl)[nH]1`, the Potency was 1650 µM.

Take `Nc1ccccc1Cl`: the Potency is 45 µM.

On to `CCOC(CN(C)CC(OCC)OCC)OCC`, for which the Potency was 2410 µM.

As for `CCC(C)=O`, the Potency was 44700 µM.

With `Clc1cccc(Cl)c1`, the Potency was 54.6 µM.

On to `N#CCC#N`, for which the Potency is 8.48 µM.

In the case of `CC1(N)CCC(C(C)(C)N)CC1` (stereo not given), the Potency was 383 µM.

With `CC1(C)C(C=C(Cl)Cl)C1C(=O)OCc1cccc(Oc2ccccc2)c1` (stereo not given), the Potency is 0.0409 µM.

Regarding `CS(C)=O`, the Potency is 435000 µM.

Take `Oc1ccc(Cl)cc1Cc1cc(Cl)ccc1O`: the Potency is 1.15 µM.

Regarding `CCOC(=O)CC(SP(=S)(OC)OC)C(=O)OCC` (stereo not given), the Potency was 42.7 µM.

Turning to `N#Cc1cc(Cl)c(O)c(Cl)c1`, the Potency was 129 µM.

Regarding `ClC(Cl)Cl`, the Potency was 592 µM.

Turning to `CCC(C)O` (stereo not given), the Potency is 49500 µM.

Take `CC(C)c1ccccc1`: the Potency was 52.6 µM.

Regarding `CCCCCCCCC(C)=O`, the Potency is 30.9 µM.

With `CCCCCCCCC(=O)O`, the Potency is 657 µM.

With `CC(=O)Nc1ccccc1O`, the Potency was 179 µM.

Consider `CCCCC(=O)CCCC`, for which the Potency is 218 µM.

Consider `ClCc1ccc(CCl)cc1`, for which the Potency was 0.223 µM.

As for `CC(C)C(C(=O)OC(C#N)c1cccc(Oc2ccccc2)c1)c1ccc(Cl)cc1` (stereo not given), the Potency is 0.0121 µM.

`Cc1cccc(Cl)c1C#N`: the Potency is 99.6 µM.

Consider `CC(C)c1ccc2c(c1)CC[C@H]1[C@](C)(C(=O)O)CCC[C@]21C`, for which the Potency is 6.99 µM.

As for `CC(C)[C@@H]1CC[C@@H](C)C[C@H]1O`, the Potency was 121 µM.

Regarding `O=Cc1ccc(O)cc1O`, the Potency was 95 µM.

In the case of `O=Cc1ccc(Cl)cc1`, the Potency is 15.6 µM.

Consider `Oc1ccc(N=Nc2ccccc2)cc1`, for which the Potency was 6 µM.

For the compound `CC(C)(C)c1cc(C(C)(C)C)c(O)c(C(C)(C)C)c1`, the Potency is 0.232 µM.

On to `OCC(Cl)(Cl)Cl`, for which the Potency was 2000 µM.

In the case of `Nc1ccc(F)cc1C(F)(F)F`, the Potency was 165 µM.

`c1ccc(Nc2ccccc2)cc1`: the Potency is 22.4 µM.

With `CCCCc1ccc(N)cc1`, the Potency was 68 µM.

`c1ccc(SSc2ccccc2)cc1`: the Potency is 0.504 µM.

As for `CC(C)(C)c1ccc(Oc2cccc(C=O)c2)cc1`, the Potency was 1.45 µM.

`Cl[C@@H]1CCCC[C@H]1Cl`: the Potency was 120 µM.

For `Nc1cccc(OCc2ccccc2)c1`, the Potency was 45.9 µM.

As to `CCCCCCCCCCCCN`, the Potency was 0.556 µM.

In the case of `C=CCCCCCCC=C`, the Potency was 2.1 µM.

As for `Cc1cc(O)ccc1Cl`, the Potency was 38.4 µM.

For `c1ccc(-c2ccc(-c3ccccc3)o2)cc1`, the outcome is “inactive; moa not determined either due to lack of toxicity at saturation or late test res”.

Take `Cc1ncc[nH]1`: the Potency is 3480 µM.

Take `CCOP(=S)(OCC)Oc1nc(Cl)c(Cl)cc1Cl`: the Potency was 0.907 µM.

With `Oc1c(Cl)c(Cl)c(Cl)c(Cl)c1Cl`, the Potency is 0.912 µM.

Consider `CCCCOC(=O)c1ccccc1C(=O)OCCCC`, for which the Potency was 3.59 µM.

As for `CCSCCSCC`, the Potency was 401 µM.

Turning to `CCOP(=O)(OCC)SCCSCC`, the Potency was 61.9 µM.

Turning to `CCCCCCCCCCCC#N`, the Potency is 2.37 µM.

Turning to `CC(=O)c1ccncc1`, the Potency was 1390 µM.

As to `CCCCN(C=O)CCCC`, the Potency was 568 µM.

In the case of `COc1cccc(O)c1`, the Potency was 596 µM.

For the compound `OCCNCCO`, the Potency was 44800 µM.

For the compound `CSCCCCCCSC`, the Potency was 56.6 µM.

Regarding `COC(=O)c1ccc(O)cc1O`, the Potency is 272 µM.

Regarding `CCCCCCOc1ccc(C=O)cc1OC`, the Potency is 11.3 µM.

Take `OCCN1CCNCC1`: the Potency is 49200 µM.

Take `CCCc1ccc(O)cc1`: the Potency is 80.8 µM.

Regarding `CCOCCOC(C)=O`, the Potency was 319 µM.

Take `CC1(C)[C@H]2CC[C@]1(C)[C@H](O)C2`: the Potency is 410 µM.

On to `OCC(Br)CBr` (stereo not given), for which the Potency was 326 µM.

With `O=C(O)C[n+]1ccccc1`, the Potency is 933 µM.

With `CC(N)CN` (stereo not given), the Potency is 13600 µM.

With `O=C1CCCCC1`, the Potency was 6330 µM.

With `CCCCCCOC(C)=O`, the Potency is 30.5 µM.

For the compound `Nc1ccc(F)c(C(F)(F)F)c1`, the Potency is 168 µM.

For `C[N+](C)(C)c1ccccc1`, the Potency is 924 µM and 1000 µM.

Consider `Oc1ccccc1Cl`, for which the Potency was 88.7 µM.

As for `O=C(O)c1ccccc1O`, the Potency was 12500 µM.

`CC1CNCCN1` (stereo not given): the Potency was 22400 µM.

With `Clc1nc(Cl)c(Cl)c(Cl)c1Cl`, the Potency was 1.87 µM.

As to `[N-]=[N+]=[N-]`, the Potency is 84 µM.

As to `CCCCCCCCOC(=O)c1ccc(C(=O)OCCCCCCCC)cc1`, the outcome is “inactive; moa not determined either due to lack of toxicity at saturation or late test res”.

For `Cc1ccc(N(C)C)cc1`, the Potency is 362 µM.

Take `CNC(=O)Oc1cccc2c1OC(C)(C)C2`: the Potency was 3.81 µM.

As to `O=C1C2CC3CC(C2)CC1C3`, the Potency is 405 µM.

As to `CCOC(=O)CC(=O)OCC`, the Potency was 91.8 µM.

As to `CCC(C)n1c(=O)[nH]c(C)c(Br)c1=O` (stereo not given), the Potency was 712 µM.

Take `Nc1c(F)c(F)c(F)c(F)c1F`: the Potency was 203 µM.

As to `c1ccc(N(c2ccccc2)c2ccccc2)cc1`, the outcome is “inactive; moa not determined either due to lack of toxicity at saturation or late test res”.

`CCCCC(CC)COC(=O)c1ccccc1C(=O)OCC(CC)CCCC` (stereo not given): the outcome is “inactive; moa not determined either due to lack of toxicity at saturation or late test res”.

Turning to `C=C(C)[C@H]1Cc2c(ccc3c2O[C@@H]2COc4cc(OC)c(OC)cc4[C@@H]2C3=O)O1`, the Potency was 0.0132 µM.

Regarding `CC(=O)C(C)CN(C)C` (stereo not given), the Potency is 65.8 µM.

As for `CC(C)OC(C)C`, the Potency was 7690 µM.

Regarding `CC(O)CN` (stereo not given), the Potency is 33600 µM.

As to `Cn1c(=O)c2c(ncn2C)n(C)c1=O`, the Potency is 778 µM.

As for `CCC(C)C=O` (stereo not given), the Potency is 116 µM.

Take `CC(C)CC=O`: the Potency was 37.7 µM.

Take `ClC(Cl)C(Cl)(Cl)Cl`: the Potency is 37.2 µM.

Consider `CNc1ccc(F)cc1`, for which the Potency was 307 µM.

On to `CCCCCO`, for which the Potency is 5360 µM.

Consider `CCOC(=O)c1ccccc1O`, for which the Potency was 122 µM.

Turning to `CCN(CC)C(=O)c1cccc(C)c1`, the Potency is 575 µM.

With `CCCCCCC(C)N` (stereo not given), the Potency was 40.2 µM.

Take `N#Cc1ccccc1C(F)(F)F`: the Potency was 247 µM.

Take `COc1ccc(O)cc1`: the Potency is 886 µM.

The values above are taken from PubChem BioAssay AID1188 (EPA DSSTox, 2008).
